Results on two molecules are retold here after paper PMC6423280, “New Therapeutic Approach for Targeting Hippo Signalling Pathway” (Scientific Reports, 2019).

Peptide text beside a SMILES is read from it.

Data set [1] is described as follows: Peptide integrity in human serum (resistance to proteases degradation). In kind it is in vitro ADME. The conditions noted are these: human serum 250 μl, 37 °C, different times, upon 6 h; MALDI-TOF MS; triplicate. On the procedure: Figure 7 Stability of the new generated peptides in human serum. Peptides were incubated at 37 °C in human serum for different periods of time and their integrity (percentage of intact peptide) was analyzed by mass spectrometry (MS). Every measurement was performed in triplicate. Standard deviation is shown.
Peptides were incubated at 37 °C in 250 μl of human serum for several times. Samples were collected and peptide degradation stopped by freezing. Peptides were extracted from samples using the Proteo Miner Protein Enrichment System (Bio-Rad, California, USA). Percentage of intact peptide was estimated by mass spectrometry (MS) using MALDI-TOFF (Brucker Autoflex II, Massachusetts, USA) following their protocols. Measurements were performed in triplicates. MS data were analyzed using appropriated software (Clinprot tools, FLEx analysis, Brucker, Massachusetts, USA) as previously described[8],[9].

Details of data set [2]: species or system C3H/S-strain mice. The conditions noted are these: mouse, in vivo. On the procedure: Figure 8 NLS18-TEAD has anti-tumoral effect on breast cancer xenograft models. (a) C3H/S-strain mice subcutaneously inoculated with 4 × 10^5 TN60-UNLP cells were intraperitoneally treated with 5 mg/kg of NLS18-TEAD or NLS23-TEAD 5 days per week for 4 weeks. Control mice received NaCl. Tumor growth was monitored each other day. The average tumor volume of each group (8 mice per group) is shown (p < 0.018). (b) The weight of the animals and the organs upon 30 days of treatment with the peptides NLS18-TEAD or NLS23-TEAD is shown. Control non-treated mice are also shown. p and t statistic values are shown. […]

In the case of `CC(C)C[C@H](NC(=O)[C@H](CCCCN)NC(=O)[C@H](CCCCN)NC(=O)[C@H](CCCCN)NC(=O)[C@H](CCCCN)NC(=O)[C@@H]1CCCN1C(=O)[C@H](Cc1c[nH]c2ccccc12)NC(=O)[C@H](CCCCN)NC(=O)[C@H](CCCCN)NC(=O)[C@H](Cc1c[nH]c2ccccc12)NC(=O)[C@H](CCCCN)NC(=O)[C@H](CCCCN)NC(=O)[C@H](CCCCN)NC(=O)[C@H](CCCCN)NC(=O)[C@H](CCCCN)NC(=O)[C@H](CCCNC(=N)N)NC(=O)[C@H](CCCCN)NC(=O)[C@@H](N)CCCNC(=N)N)C(=O)N[C@@H](CC(=O)O)C(=O)N[C@@H](CCCNC(=N)N)C(=O)N[C@@H](CC(C)C)C(=O)N[C@@H](CCC(N)=O)C(=O)N[C@@H](CC(C)C)C(=O)N[C@H](C(=O)N[C@@H](CCC(=O)O)C(=O)N[C@@H](Cc1ccccc1)C(=O)N[C@@H](CO)C(=O)N[C@@H](C)C(=O)N[C@@H](Cc1ccccc1)C(=O)N[C@H](C(=O)N[C@@H](CCC(=O)O)C(=O)N1CCC[C@H]1C(=O)N1CCC[C@H]1C(=O)N[C@@H](CC(=O)O)C(=O)N[C@@H](C)C(=O)N[C@H](C(=O)N[C@@H](CC(=O)O)C(=O)O)C(C)C)C(C)C)C(C)C` [NLS18-TEAD] (H-RKRKKKKKWKKWPKKKKLDRLQLVEFSAFVEPPDAVD-OH), in data set [1], the “Stability to proteases degradation in human serum (percentage of intact peptide)” value is given as “constant stability”. In data set [2], the “Clinical symptoms in the injected animals compared to control non-treated animals” value is listed as “did not detected clinical symptoms”. For the molecule `CC(C)C[C@H](NC(=O)[C@H](CCCCN)NC(=O)[C@H](CCCCN)NC(=O)[C@H](CCCCN)NC(=O)[C@H](CCCCN)NC(=O)[C@@H]1CCCN1C(=O)[C@H](CCCCN)NC(=O)[C@H](CCCCN)NC(=O)[C@H](CCCCN)NC(=O)[C@H](Cc1c[nH]c2ccccc12)NC(=O)[C@H](CCCCN)NC(=O)[C@H](CCCCN)NC(=O)[C@H](Cc1c[nH]c2ccccc12)NC(=O)[C@H](CCCCN)NC(=O)[C@H](CCCCN)NC(=O)[C@H](CCCCN)NC(=O)[C@H](CCCCN)NC(=O)[C@H](CCCCN)NC(=O)[C@H](CCCNC(=N)N)NC(=O)[C@H](CCCCN)NC(=O)[C@@H](N)CCCNC(=N)N)C(=O)N[C@@H](CC(=O)O)C(=O)N[C@@H](CCCNC(=N)N)C(=O)N[C@@H](CC(C)C)C(=O)N[C@@H](CCC(N)=O)C(=O)N[C@@H](CC(C)C)C(=O)N[C@H](C(=O)N[C@@H](CCC(=O)O)C(=O)N[C@@H](Cc1ccccc1)C(=O)N[C@@H](CO)C(=O)N[C@@H](C)C(=O)N[C@@H](Cc1ccccc1)C(=O)N[C@H](C(=O)N[C@@H](CCC(=O)O)C(=O)N1CCC[C@H]1C(=O)N1CCC[C@H]1C(=O)N[C@@H](CC(=O)O)C(=O)N[C@@H](C)C(=O)N[C@H](C(=O)N[C@@H](CC(=O)O)C(=O)O)C(C)C)C(C)C)C(C)C` [NLS23-TEAD] (H-RKRKKKKKWKKWKKKPKKKKLDRLQLVEFSAFVEPPDAVD-OH), the “Clinical symptoms in the injected animals compared to control non-treated animals” value in data set [2] is recorded as “did not detected clinical symptoms”.
